From ChEMBL document CHEMBL4316588, “Design, Synthesis, and Biological Evaluation of Novel DNA Gyrase-Inhibiting Spiropyrimidinetriones as Potent Antibiotics for Treatment of Infections Caused by Multidrug-Resistant Gram-Positive Bacteria” (J Med Chem, 2019)
Values after ≈ are worked out from the molar mass of the structure shown. Active and inactive are the calls of the source. The calls are words filed in the database; no cut-off is given here.

Experiments:
Assay type in all cases: functional
[1] = system: Streptococcus pneumoniae; assay: Antibacterial activity against penicillin-resistant Streptococcus pneumoniae after 18 to 20 hrs by CLSI-protocol based broth microdilution method
[2] = system: Staphylococcus epidermidis; assay: Antibacterial activity against methicillin-resistant Staphylococcus epidermidis after 18 to 20 hrs by CLSI-protocol based broth microdilution method
[3] = system: Staphylococcus epidermidis; assay: Antibacterial activity against methicillin-sensitive Staphylococcus epidermidis after 18 to 20 hrs by CLSI-protocol based broth microdilution method
[4] = system: Staphylococcus aureus; assay: Antibacterial activity against methicillin-sensitive Staphylococcus aureus after 18 to 20 hrs by CLSI-protocol based broth microdilution method
[5] = system: Streptococcus pyogenes; assay: Antibacterial activity against Streptococcus pyogenes after 18 to 20 hrs by CLSI-protocol based broth microdilution method
[6] = system: Staphylococcus aureus; assay: Antibacterial activity against methicillin-resistant Staphylococcus aureus after 18 to 20 hrs by CLSI-protocol based broth microdilution method
[7] = Staphylococcus aureus, read-out: MIC
[8] = Streptococcus pyogenes, read-out: MIC

SMILES	MIC [1]	MIC [2]	MIC [3]	MIC [4]	MIC [5]	MIC [6]	MIC [4, 7]	MIC [5, 8]
C[C@@H]1CN2c3c(cc4c(N5CCOCC5)ncnc4c3F)CC3(C(=O)NC(=O)NC3=O)[C@H]2[C@H](C)O1 (racemic)	inactive	inactive	inactive	inactive	inactive	inactive	–	–
C[C@@H]1CN2c3c(cc4c(N5C[C@H](CF)SC5=O)noc4c3F)CC3(C(=O)NC(=O)NC3=O)[C@H]2[C@H](C)O1	0.06 to 0.25 µg/mL (≈ 0.115 to 0.479 µM)	–	< 0.03 µg/mL	–	–	–	0.06 to 0.125 µg/mL (≈ 0.115 to 0.24 µM)	–
C[C@@H]1CN2c3c(cc4c(N5C[C@H](c6ccccc6)SC5=O)noc4c3F)CC3(C(=O)NC(=O)NC3=O)[C@H]2[C@H](C)O1	1 to 2 µg/mL (≈ 1.77 to 3.54 µM)	0.125 to 0.5 µg/mL (≈ 0.221 to 0.884 µM)	0.5 to 2 µg/mL (≈ 0.884 to 3.54 µM)	–	–	0.125 to 2 µg/mL (≈ 0.221 to 3.54 µM)	0.5 to 1 µg/mL (≈ 0.884 to 1.77 µM)	4 µg/mL (≈ 7.07 µM)
C[C@@H]1CN2c3c(cc4c(N5C(=O)OCC56CC6)noc4c3F)CC3(C(=O)NC(=O)NC3=O)[C@H]2[C@H](C)O1 (racemic)	2 µg/mL (≈ 4 µM)	0.5 to 2 µg/mL (≈ 1 to 4 µM)	1 to 2 µg/mL (≈ 2 to 4 µM)	–	–	1 to 4 µg/mL (≈ 2 to 8.01 µM)	1 µg/mL (≈ 2 µM)	1 to 2 µg/mL (≈ 2 to 4 µM)
Cc1ncnc2c(F)c3c(cc12)CC1(C(=O)NC(=O)NC1=O)[C@H]1[C@H](C)O[C@H](C)CN31 (racemic)	inactive	inactive	inactive	inactive	inactive	inactive	–	–
C[C@@H]1CN2c3c(cc4c(N5CC6(CC6)OC5=O)noc4c3F)CC3(C(=O)NC(=O)NC3=O)[C@H]2[C@H](C)O1 (racemic)	≤ 0.03 µg/mL	≤ 0.03 µg/mL	≤ 0.03 µg/mL	<0.03 µg/mL	–	0.03 to 0.125 µg/mL (≈ 0.0601 to 0.25 µM)	–	≤ 0.03 µg/mL
C[C@@H]1CN2c3c(cc4c(N5C(=O)OC[C@@H]5C)noc4c3F)CC3(C(=O)NS(=O)(=O)NC3=O)[C@H]2[C@H](C)O1	inactive	inactive	inactive	inactive	inactive	inactive	–	–
C[C@@H]1CN2c3c(cc4c(N5C[C@H](COC(F)(F)F)SC5=O)noc4c3F)CC3(C(=O)NC(=O)NC3=O)[C@H]2[C@H](C)O1	0.125 to 0.5 µg/mL (≈ 0.213 to 0.851 µM)	–	–	–	–	–	0.06 to 1 µg/mL (≈ 0.102 to 1.7 µM)	0.125 to 0.25 µg/mL (≈ 0.213 to 0.426 µM)
C[C@@H]1CN2c3c(cc4c(N5C[C@H](C)SC5=O)noc4c3C#N)CC3(C(=O)NC(=O)NC3=O)[C@H]2[C@H](C)O1	0.125 to 0.25 µg/mL (≈ 0.245 to 0.49 µM)	0.06 to 0.5 µg/mL (≈ 0.118 to 0.979 µM)	0.06 to 0.125 µg/mL (≈ 0.118 to 0.245 µM)	–	–	–	0.06 to 1 µg/mL (≈ 0.118 to 1.96 µM)	0.125 to 0.5 µg/mL (≈ 0.245 to 0.979 µM)
C[C@@H]1CN2c3c(cc4c(N5C(=O)OC[C@@H]5C)noc4c3C#N)CC3(C(=O)NC(=O)NC3=O)[C@H]2[C@H](C)O1	2 to 8 µg/mL (≈ 4.04 to 16.2 µM)	1 to 2 µg/mL (≈ 2.02 to 4.04 µM)	0.5 to 2 µg/mL (≈ 1.01 to 4.04 µM)	–	–	1 to 32 µg/mL (≈ 2.02 to 64.7 µM)	4 to 8 µg/mL (≈ 8.09 to 16.2 µM)	4 to 8 µg/mL (≈ 8.09 to 16.2 µM)
C[C@@H]1CN2c3c(cc4c(N5CCSCC5)ncnc4c3F)CC3(C(=O)NC(=O)NC3=O)[C@H]2[C@H](C)O1 (racemic)	inactive	inactive	inactive	inactive	inactive	inactive	–	–
C[C@@H]1CN2c3c(cc4c(N5CCCOC5=O)noc4c3F)CC3(C(=O)NC(=O)NC3=O)[C@H]2[C@H](C)O1 (racemic)	4 to 8 µg/mL (≈ 8.21 to 16.4 µM)	1 to 8 µg/mL (≈ 2.05 to 16.4 µM)	4 µg/mL (≈ 8.21 µM)	–	–	1 to 64 µg/mL (≈ 2.05 to 131 µM)	4 to 8 µg/mL (≈ 8.21 to 16.4 µM)	4 µg/mL (≈ 8.21 µM)
C[C@@H]1CN2c3c(cc4c(N5CC6(COC6)OC5=O)noc4c3F)CC3(C(=O)NC(=O)NC3=O)[C@H]2[C@H](C)O1	0.125 to 0.5 µg/mL (≈ 0.243 to 0.97 µM)	0.03 to 0.25 µg/mL (≈ 0.0582 to 0.485 µM)	0.03 to 0.125 µg/mL (≈ 0.0582 to 0.243 µM)	–	–	0.03 to 1 µg/mL (≈ 0.0582 to 1.94 µM)	0.125 to 0.25 µg/mL (≈ 0.243 to 0.485 µM)	0.125 to 0.25 µg/mL (≈ 0.243 to 0.485 µM)
C[C@@H]1CN2c3c(cc4c(-n5cncn5)ncnc4c3F)CC3(C(=O)NC(=O)NC3=O)[C@H]2[C@H](C)O1 (racemic)	inactive	inactive	inactive	inactive	inactive	inactive	–	–
C[C@@H]1CN2c3c(cc4c(N5C(=O)S[C@@H]6CCC[C@@H]65)noc4c3F)CC3(C(=O)NC(=O)NC3=O)[C@H]2[C@H](C)O1	< 0.03 µg/mL	–	< 0.03 µg/mL	–	–	–	–	< 0.03 µg/mL
CC[C@H]1CSC(=O)N1c1noc2c(F)c3c(cc12)CC1(C(=O)NC(=O)NC1=O)[C@H]1[C@H](C)O[C@H](C)CN31	0.5 to 1 µg/mL (≈ 0.966 to 1.93 µM)	0.25 to 0.5 µg/mL (≈ 0.483 to 0.966 µM)	0.5 to 1 µg/mL (≈ 0.966 to 1.93 µM)	–	–	0.5 to 1 µg/mL (≈ 0.966 to 1.93 µM)	0.25 to 0.5 µg/mL (≈ 0.483 to 0.966 µM)	0.5 to 1 µg/mL (≈ 0.966 to 1.93 µM)
C[C@@H]1CN2c3c(cc4c(N5CC6(CC6)OC5=O)noc4c3C#N)CC3(C(=O)NC(=O)NC3=O)[C@H]2[C@H](C)O1	1 to 2 µg/mL (≈ 1.97 to 3.95 µM)	0.5 to 2 µg/mL (≈ 0.987 to 3.95 µM)	0.25 to 2 µg/mL (≈ 0.494 to 3.95 µM)	–	–	0.03 to 8 µg/mL (≈ 0.0592 to 15.8 µM)	1 to 4 µg/mL (≈ 1.97 to 7.9 µM)	4 µg/mL (≈ 7.9 µM)
CC[C@@H]1CSC(=O)N1c1noc2c(F)c3c(cc12)CC1(C(=O)NC(=O)NC1=O)[C@H]1[C@H](C)O[C@H](C)CN31	2 µg/mL (≈ 3.86 µM)	0.25 to 2 µg/mL (≈ 0.483 to 3.86 µM)	1 µg/mL (≈ 1.93 µM)	–	–	0.5 to 2 µg/mL (≈ 0.966 to 3.86 µM)	0.5 to 1 µg/mL (≈ 0.966 to 1.93 µM)	4 µg/mL (≈ 7.73 µM)
C[C@@H]1CN2c3c(cc4c(N5CCOC5=S)noc4c3F)CC3(C(=O)NC(=O)NC3=O)[C@H]2[C@H](C)O1 (racemic)	1 to 2 µg/mL (≈ 2.04 to 4.09 µM)	1 µg/mL (≈ 2.04 µM)	0.5 to 2 µg/mL (≈ 1.02 to 4.09 µM)	–	–	1 to 2 µg/mL (≈ 2.04 to 4.09 µM)	0.5 to 1 µg/mL (≈ 1.02 to 2.04 µM)	2 µg/mL (≈ 4.09 µM)
C[C@@H]1CN2c3c(cc4c(N5CC6(CCCC6)OC5=O)noc4c3F)CC3(C(=O)NC(=O)NC3=O)[C@H]2[C@H](C)O1	0.25 to 1 µg/mL (≈ 0.474 to 1.9 µM)	0.03 to 0.25 µg/mL (≈ 0.0569 to 0.474 µM)	0.06 to 0.25 µg/mL (≈ 0.114 to 0.474 µM)	–	–	0.06 to 1 µg/mL (≈ 0.114 to 1.9 µM)	0.125 to 0.25 µg/mL (≈ 0.237 to 0.474 µM)	0.25 to 0.5 µg/mL (≈ 0.474 to 0.948 µM)
C[C@@H]1CN2c3c(cc4c(N5C(=O)SC[C@H]5C)noc4c3F)CC3(C(=O)NC(=O)NC3=O)[C@H]2[C@H](C)O1	0.25 to 1 µg/mL (≈ 0.497 to 1.99 µM)	0.03 to 0.125 µg/mL (≈ 0.0596 to 0.248 µM)	0.03 to 0.125 µg/mL (≈ 0.0596 to 0.248 µM)	–	–	0.03 to 0.5 µg/mL (≈ 0.0596 to 0.993 µM)	0.25 to 0.5 µg/mL (≈ 0.497 to 0.993 µM)	0.125 to 0.25 µg/mL (≈ 0.248 to 0.497 µM)
C[C@@H]1CN2c3c(cc4c(N5C(=O)S[C@H]6CCC[C@H]65)noc4c3F)CC3(C(=O)NC(=O)NC3=O)[C@H]2[C@H](C)O1	0.25 to 0.5 µg/mL (≈ 0.472 to 0.944 µM)	0.5 µg/mL (≈ 0.944 µM)	0.5 µg/mL (≈ 0.944 µM)	–	–	0.25 to 1 µg/mL (≈ 0.472 to 1.89 µM)	0.25 to 0.5 µg/mL (≈ 0.472 to 0.944 µM)	0.125 µg/mL (≈ 0.236 µM)
C[C@@H]1CN2c3c(cc4c(N5C(=O)OC[C@@H]5C)noc4c3F)CC3(C(=O)NC(=S)NC3=O)[C@H]2[C@H](C)O1	inactive	inactive	inactive	inactive	inactive	inactive	–	–
C[C@@H]1CN2c3c(cc4c(N5C[C@H](CO)SC5=O)noc4c3F)CC3(C(=O)NC(=O)NC3=O)[C@H]2[C@H](C)O1	0.125 to 0.25 µg/mL (≈ 0.241 to 0.481 µM)	0.03 to 0.125 µg/mL (≈ 0.0577 to 0.241 µM)	0.06 to 0.25 µg/mL (≈ 0.115 to 0.481 µM)	–	–	0.5 to 4 µg/mL (≈ 0.962 to 7.7 µM)	1 µg/mL (≈ 1.92 µM)	0.125 to 0.5 µg/mL (≈ 0.241 to 0.962 µM)
C[C@H]1COc2c(N3CCN(C)CC3)c(F)cc3c(=O)c(C(=O)O)cn1c23.C[C@H]1COc2c(N3CCN(C)CC3)c(F)cc3c(=O)c(C(=O)O)cn1c23.O [LEVOFLOXACIN]	–	4 to 64 µg/mL	0.5 to 4 µg/mL	–	–	16 to 64 µg/mL	4 to 64 µg/mL	0.5 to 1 µg/mL
CC(=O)NC[C@H]1CN(c2noc3c(F)c4c(cc23)CC2(C(=O)NC(=O)NC2=O)[C@H]2[C@H](C)O[C@H](C)CN42)C(=O)S1	2 µg/mL (≈ 3.57 µM)	0.5 to 2 µg/mL (≈ 0.892 to 3.57 µM)	2 to 8 µg/mL (≈ 3.57 to 14.3 µM)	–	–	16 to 64 µg/mL (≈ 28.5 to 114 µM)	16 µg/mL (≈ 28.5 µM)	16 to 32 µg/mL (≈ 28.5 to 57.1 µM)
CC[C@@H]1CN(c2noc3c(F)c4c(cc23)CC2(C(=O)NC(=O)NC2=O)[C@H]2[C@H](C)O[C@H](C)CN42)C(=O)S1	–	< 0.03 µg/mL	< 0.03 µg/mL	–	–	–	–	< 0.03 µg/mL
C[C@@H]1CN2c3c(cc4c(N5C(=O)S[C@@H]6CCCC[C@@H]65)noc4c3F)CC3(C(=O)NC(=O)NC3=O)[C@H]2[C@H](C)O1	< 0.03 µg/mL	0.125 to 0.5 µg/mL (≈ 0.23 to 0.92 µM)	0.25 to 0.5 µg/mL (≈ 0.46 to 0.92 µM)	–	–	0.5 to 2 µg/mL (≈ 0.92 to 3.68 µM)	0.5 to 1 µg/mL (≈ 0.92 to 1.84 µM)	–
